Values of other authors as cited in patent US20230270982A1, “DEVICES FOR REGIO-SPECIFIC RELEASE OF CARRIED DRUG AT ILEOCECAL REGION” (Teva Pharmaceutical Industries Ltd., priority 2020, published 2023).

Assays:
[1] = oral ester prodrug; extensive intestinal esterase degradation
[2] = tested on: inflammatory bowel disease in mice; conditions: given topically

CC(C)OC(=O)OCOP(=O)(CO[C@H](C)Cn1cnc2c(N)ncnc21)OCOC(=O)OC(C)C [Tenofovir disoproxil]
bioavailability of the prodrug [1]: about 30%

glatiramer acetate
treating UC [2]: effective
